Assay results: patent US10844118B2, “Treatment of inflammatory skin disease” (CHILDREN'S MEDICAL CENTER CORPORATION, priority 2013, dated 2020)
Entries after “also recorded” stand apart in the source; their conditions may differ.

Columns and labels:
CD1a [1] = target: T1, CD1a (Homo sapiens, UniProt P06126); assay: plate-bound binding assay, purified urushiol and recombinant CD1a; conditions: plate coated with lipid, biotinylated CD1a, streptavidin-peroxidase; compared to positive control sulfatide
Text: Central to our invention is the discovery that CD1a expressed on Langerhans cells is able to mediate skin inflammation through the induction of CD1a-restricted T cells. Accordingly, T cells stimulated by CD1a produce inflammatory cytokines such as interferon (IFN) gamma and IL-17 that facilitate the development of inflammatory skin disease (FIG. 1A). The CD1a-mediated mechanism holds true for diverse skin diseases, including poison ivy contact dermatitis as well as psoriasis. […] For this purpose, we performed a plate-bound binding assay, using purified urushiol and recombinant CD1a. After coating the microtiter plates with urushiol or the known CD1a ligand sulfatide as positive control, plates were washed and subsequently incubated with biotinylated CD1a. Following incubation with streptavidin-peroxidase and the respective chromogenic enzyme substrate, optical density was measured indicating binding efficiency. […] Thus, urushiol from poison ivy is a ligand for CD1a.
Target sequence in this assay (P06126 17-300 limits assumed): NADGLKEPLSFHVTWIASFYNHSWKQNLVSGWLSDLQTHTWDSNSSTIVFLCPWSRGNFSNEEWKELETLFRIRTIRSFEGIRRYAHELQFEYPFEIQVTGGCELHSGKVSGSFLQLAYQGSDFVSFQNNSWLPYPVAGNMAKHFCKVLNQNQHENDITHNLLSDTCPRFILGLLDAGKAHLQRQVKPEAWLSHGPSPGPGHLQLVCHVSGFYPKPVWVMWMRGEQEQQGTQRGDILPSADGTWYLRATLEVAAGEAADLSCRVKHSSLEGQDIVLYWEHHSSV
Target sequence in this assay (P61769 21-119 partner): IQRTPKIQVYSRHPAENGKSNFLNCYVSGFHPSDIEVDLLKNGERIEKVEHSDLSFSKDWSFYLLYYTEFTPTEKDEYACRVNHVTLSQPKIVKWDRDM

CD1a [2] = target: T1, CD1a; assay: urushiol-induced contact dermatitis (poison ivy) in CD1a-transgenic mice; type: in vivo, mouse; set-up: expressed in transfected cells; host or cells: CD1a-transgenic mice (compared with wild-type B6 mice)
Text: Next, we wanted to explore the function of CD1a in the in vivo response to urushiol. However, CD1a is mainly expressed in humans, and absent in experimental mice. Therefore, in vivo studies investigating CD1a function were not possible in the past. Therefore, we used mice transgenic for human CD1a to overcome that obstacle. FIG. 2A depicts the experimental set-up to investigate the skin immune response to poison ivy. Accordingly, CD1a-transgenic mice compared to wild-type (WT) mice were sensitized with urushiol on the abdomen following the epicutaneous route. Five days later, mice were challenged on the ear skin, prior to harvesting of inflamed ears and draining lymph nodes 48 h after challenge. […] Subsequently, we isolated the inflammatory cells from the ears, using in vitro enzyme digestion of ear tissues, prior to staining for neutrophils and T lymphocyte subsets.
In parallel, we also determined the cytokine profile of the T cells infiltrating the inflamed skin. Accordingly, we performed intracellular cytokine staining for IFN-γ, IL-17, and IL-22, prior to analysis by flow cytometry. […] IL-17 is known to mediate the recruitment of neutrophils, and IL-22 acts on epithelial cells to trigger their hyperproliferation, both cardinal features of skin inflammation.
Based on our findings that CD1a promotes skin inflammation, we next aimed at developing a therapeutic strategy to target CD1a in order to abrogate skin disease. To this end, we used an experimental blocking antibody to CD1a for intraperitoneal injection of mice. The treatment schedule included five injections of 100 μg anti-CD1a starting one day prior to sensitization with urushiol and followed by injections every other day until challenge and tissue harvest. […] To control for the efficiency of antibody treatment, we stained ear cells for CD1a, the crucial surface marker of Langerhans cells. […] Moreover, we investigated the impact of anti-CD1a treatment on the abundance of IL-17-producing CD4 T cells (also called Th17 cells). […] Taken together, we provide the proof of principle that anti-CD1a therapy abrogates skin inflammation.
Target sequence in this assay (P06126 17-327): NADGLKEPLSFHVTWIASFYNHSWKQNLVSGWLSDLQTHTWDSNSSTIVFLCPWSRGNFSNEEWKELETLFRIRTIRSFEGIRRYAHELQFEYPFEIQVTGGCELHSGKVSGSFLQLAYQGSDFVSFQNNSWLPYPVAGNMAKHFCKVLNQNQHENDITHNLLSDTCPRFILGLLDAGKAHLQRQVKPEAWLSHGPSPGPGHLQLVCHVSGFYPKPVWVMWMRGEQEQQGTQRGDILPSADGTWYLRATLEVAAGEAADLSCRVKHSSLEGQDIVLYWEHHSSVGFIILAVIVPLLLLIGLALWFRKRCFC
Target sequence in this assay (P01887 21-119 partner): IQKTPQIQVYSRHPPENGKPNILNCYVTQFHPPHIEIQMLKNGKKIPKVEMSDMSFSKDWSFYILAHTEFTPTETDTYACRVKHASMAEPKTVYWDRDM

CD1a-transgenic mice = assay: DNFB hapten sensitization and challenge in CD1a-transgenic mice; type: in vivo
Text: Finally, we wanted to examine whether CD1a-transgenic mice are generally prone to increased inflammatory responses. To this end, we treated mice with the well-established hapten DNFB (dinitrofluorobenzene). FIG. 7A depicts the skin sensitization and challenge schedule used for DNFB and urushiol application. […] It is well known that haptens like DNFB induce a prominent IFN-γ response, as we observed in WT mice (FIG. 7D). […] By contrast, the classical delayed type hypersensitivity (DTH) response to DNFB was rather decreased in the presence of CD1a. This underlines the specific nature of CD1a function in urushiol-induced contact dermatitis and psoriasis.

CD1a [3] = target: T1, CD1a; assay: imiquimod (IMQ) psoriasis model in CD1a-transgenic mice; type: in vivo, mouse; set-up: expressed in transfected cells; host or cells: CD1a-transgenic mice (compared with wild-type B6 mice)
Text: Therefore, we subsequently investigated whether CD1a also plays an important role in psoriasis. For this purpose, we used a well-established model applying the small molecule imiquimod (IMQ) to the skin of mice, which induces psoriasis-like pathology after 3-6 days of daily administration. Strikingly, CD1a-transgenic mice responded with extensive ear swelling when compared to WT controls (FIG. 5A).
In order to test whether anti-CD1a therapy is able to abrogate skin inflammation in psoriasis, we performed IMQ treatment of mice and administered anti-CD1a antibody in parallel as described above. […] Of note, anti-CD1a therapy blocked the infiltration of IL-17 producing CD4 T cells.
Target sequence in this assay (P06126 17-327): as the sequence (P06126 17-327) above
Target sequence in this assay (P01887 21-119 partner): as the sequence (P01887 21-119 partner) above

CD1a [4] = target: T1, CD1a; assay: OCTET Bio-Layer Interferometry CD1a-lipid ligand binding assay; conditions: recombinant CD1a coupled to a biosensor, incubated with lipid ligand
Text: In order to develop a small molecule inhibitor against CD1a, a CD1a binding assay as a platform can be used to test potential inhibitors from a chemical compound library. For this purpose, we have already established a read-out using the OCTET machine (from FORTEBIO) to measure the molecular interaction between CD1a and lipid ligands with high sensitivity. […] However, the great advantage of the OCTET is its straightforward assay set-up, and that it is amenable to high throughput screening using a 384-well plate format. Accordingly, we use recombinant CD1a molecules coupled to a biosensor, prior to incubation with the known lipid ligand sulfatide. […] In a next step, use pools of small organic molecules derived from a chemical compound library are tested by adding them to the CD1a-sulfatide binding assay. Subsequently, one can measure whether a small molecule candidate is able to inhibit the interaction between CD1a and its ligand.
Target sequence in this assay (P06126 17-300 limits assumed): as the sequence (P06126 17-300 limits assumed) above
Target sequence in this assay (P61769 21-119 partner): as the sequence (P61769 21-119 partner) above

CD1a [5] = target: T1, CD1a; assay: MC903-induced atopic dermatitis model in CD1a-transgenic mice; type: in vivo; set-up: expressed in transfected cells; host or cells: CD1a-transgenic mice (compared with wild-type B6 mice); conditions: MC903 daily on ears, CD1a-transgenic mice compared to WT B6 controls
Text: Atopic dermatitis is an inflammatory skin disease characterized by itchy and relapsing eczematous skin lesions. It affects approximately 30% of children and 10% of adults, costing up to $3.8 billion annually in the United States. The cause of atopic dermatitis remains unclear, and there is no cure available. Recently, it has been reported that IL-22-producing CD4 T cells are associated with initiation and progression of atopic dermatitis. Therefore, it is worthwhile to test whether anti-CD1a therapy can be extended to atopic dermatitis. For this purpose, we set up a mouse model of atopic dermatitis applying MC903 (calcipotriol, Vitamin D analogue) daily on the ears of experimental mice, which triggers atopic dermatitis-like skin inflammation characterized by red, scaly, and eczematous lesions. […] Furthermore, anti-CD1a Ab injection suppressed ear swelling and granulocyte infiltration in CD1a-transgenic mice.
The inventors tested the contribution of CD1a presence in MC903-induced atopic dermatitis. The vitamin D3 analogue MC903 was used to induce AD-like symptoms in wild-type (WT-B6) mice, CD1a transgenic mice, and CD1a transgenic mice that were treated with an anti-CD1a Ab. For CD1a blocking, 200 μg of anti-CD1a Ab was intraperitoneally injected into CD1a-transgenic mice every other day (−1, +1, +3, +5, and +7 days before and after MC903 treatment).
Target sequence in this assay (P06126 17-327): as the sequence (P06126 17-327) above
Target sequence in this assay (P01887 21-119 partner): as the sequence (P01887 21-119 partner) above

[6] = intracellular cytokine staining, flow cytometry

urushiol
binding to CD1a (optical density) (CD1a [1]): specific binding; also recorded: interacts as a ligand | ear swelling (ear thickness) (CD1a [2]; 2 days after urushiol challenge, CD1a-transgenic mice compared to WT controls): drastically increased | CD4+αβ T cells in urushiol-challenged skin (CD1a [2]; CD1a-dependent fashion): expanded | frequency of Th17 cells (CD1a [2]; CD1a-transgenic mice challenged with urushiol): drastically increased | IFN-γ response of T cells infiltrating the inflamed skin (CD1a [2]; [6]): failed to induce | cytokine profile of T cells responding to challenge (CD1a [2]; [6]): mainly produced the cytokines IL-17 and IL-22 | neutrophil infiltration (Gr-1, CD11b), flow cytometry (CD1a [2]; urushiol-challenged ears, CD1a-transgenic mice vs WT): striking increase

O=[N+]([O-])c1ccc(F)c([N+](=O)[O-])c1 [DNFB, 2,4,-dinitro-1-fluorobenzene]
T cell-derived IFN-γ (CD1a-transgenic mice; CD1a-transgenic animals, response biased towards IL-17): significantly reduced | abundance of inflammatory granulocytes, flow cytometry (CD1a-transgenic mice; CD1a-transgenic mice): strikingly reduced | ear swelling (inflammation) (CD1a-transgenic mice; CD1a-transgenic mice, in contrast to poison ivy challenge): reduction | IFN-γ response (CD1a-transgenic mice; WT mice): prominent

CC(C)Cn1cnc2c(N)nc3ccccc3c21 [imiquimod]
ear swelling (CD1a [3]; IMQ on skin, CD1a-transgenic mice compared to WT controls): extensive | Gr-1+CD11b+ neutrophils and αβ T cells in the skin, flow cytometry (CD1a [3]; IMQ, CD1a-transgenic mice): dramatic increase | cytokine profile of inflammatory T cells (CD1a [3]; IMQ, CD1a-transgenic mice): mainly consisted of CD4 T cells producing IL-17 and IL-22

sulfatide
binding curves, molecular interaction with CD1a (CD1a [4]): sensitive and specific binding curves

C=C1/C(=C\C=C2/CCC[C@]3(C)[C@@H]([C@H](C)/C=C/[C@@H](O)C4CC4)CC[C@@H]23)C[C@@H](O)C[C@@H]1O [MC903, calcipotriol]
Gr1+CD11b+ granulocyte infiltration (CD1a [5]): significantly amplified | ear swelling (CD1a [5]): significantly amplified
